For the first test, the system named is TGFb/SMAD Signaling Pathway SBE reporter cell line. The test can be described thus: TGFb reporter assay (TGFb/SMAD Signaling Pathway SBE luciferase reporter cell line). It is filed as cell-based. As to conditions: 5-6 h preincubation, then TGFb, 18 h, luciferase luminescence. The procedure:
TGFβ/SMAD Signaling Pathway SBE reporter cell line was obtained from BPS Bioscience. Cells were passed, expanded, and stored in liquid nitrogen as per the supplier's instructions with the exception that growth media is changed to DMEM-C with Geneticin (DMEM supplemented with 10% fetal bovine serum, 1×NEAA, 1 mM Pyruvate, 2 mM glutamine, 50 μg/mL penicillin, 50 U/mL streptomycin and 400 μg/mL of Geneticin). The assay media was MEM supplemented with 0.5% fetal bovine serum, 1×NEAA, 1 mM Pyruvate, 50 μg/mL penicillin and 50 U/mL streptomycin.
TGFb/SMAD Signaling Pathway SBE reporter cell line was obtained from BPS Bioscience. Cells were passed/expanded/stored in liquid nitrogen per supplier's instruction with the exception that growth media was changed to DMEM-C with Geneticin (DMEM supplemented with 10% fetal bovine serum, IX NEAA, 1 mM Pyruvate, 2 mM glutamine, 50 μg/mL penicillin, 50 U/mL streptomycin and 400 ug/mL of Geneticin). The assay media was MEM supplemented with 0.5% fetal bovine serum, IX NEAA, 1 mM Pyruvate, 50 μg/mL penicillin and 50 U/mL streptomycin.
Reporter cells were harvested from the tissue culture flasks by incubation in small quantity of Versene at room temperature for three to five minutes after the media in the flask was removed and cells rinsed with PBS. Cells were counted and diluted in the assay media at 0.8×10^6 cells/mL then 50 uL/well were added to 96-well assay plate. Test samples (at desired concentrations diluted in assay media) were added to assay plate containing the 50 uL/well of cells (or media only), 50 uL per well, and incubated for 5-6 hours at 37° C. in a 5% CO2 humidified incubator. After that time, 15 uL of TGFb diluted to 12.5 ng/mL in the assay media was added to the plate. Controls included TGFb titration (from 25 to 0 ng/mL) without inhibitors, and media only (without cells, inhibitor or TGFb). Plates were incubated at 37° C. in a […] humidified incubator for 18 h. Luciferase substrate solution was subsequently added at 75 uL per well, incubated in dark with shaking at room temperature for 10 min, and luminescence was measured using a luminometer.
For orientation: In a reporter assay the amount or activity of a reporter protein is the signal.
The term EC50 denotes the concentration at which the effect is half-maximal. The low end stands for a more potent agent, the high end for a less potent agent. With `Cc1cccc(-c2nc(CN[C@@H](C)c3ccccc3)[nH]c2-c2ccc3ncnn3c2)n1` [Compound 12], the EC50 lay within 100 to 1000 nM.
Same read-out and setting: with `COC(=O)[C@@H](NCc1nc(-c2cccc(C)n2)c(-c2ccc3ncnn3c2)[nH]1)c1ccccc1` [Compound 16] the figure was 100 to 1000 nM; with `Cc1cccc(-c2nc(CNCc3ccccc3Oc3cccnc3)[nH]c2-c2ccc3ncnn3c2)n1` [Compound 54], 0.1 to 10 nM.
Take `Cc1cccc(-c2nc(CNCc3ccccc3Oc3ccncc3)[nH]c2-c2ccc3ncnn3c2)n1` [Compound 55]: the EC50 was in the range of 1000 to 10000 nM.
On the same count and under the same terms, with `Cc1cccc(-c2nc(CNCc3cccc(Oc4ccccc4)c3)[nH]c2-c2ccc3ncnn3c2)n1` [Compound 56] the figure was 10 to 100 nM.
Still for that read-out and setting: in the case of `Cc1cccc(-c2nc(CNCc3cccc(Oc4cccnc4)c3)[nH]c2-c2ccc3ncnn3c2)n1` [Compound 57] it was 10 to 100 nM; in that of `Cc1cccc(-c2nc(CNCc3cccc(Oc4ccncc4)c3)[nH]c2-c2ccc3ncnn3c2)n1` [Compound 58], 10 to 100 nM.
Still for that read-out and setting: in the case of `Cc1cccc(-c2nc(CNCCc3ccccc3F)[nH]c2-c2ccc3ncnn3c2)n1` [Compound 59] it was 0.1 to 10 nM; in that of `Cc1cccc(-c2nc(CNCCc3c(F)cccc3F)[nH]c2-c2ccc3ncnn3c2)n1` [Compound 60], 0.1 to 10 nM.
In the case of `Cc1cccc(-c2nc(CNCCc3cccc(F)c3)[nH]c2-c2ccc3ncnn3c2)n1` [Compound 61], the EC50 was in the range of 0.1 to 10 nM.
Same read-out and setting: with `Cc1cccc(-c2nc(CNCCc3ccc(F)cc3F)[nH]c2-c2ccc3ncnn3c2)n1` [Compound 63] the figure was 0.1 to 10 nM; with `Cc1cccc(-c2nc(CNCCCc3ccccc3)[nH]c2-c2ccc3ncnn3c2)n1` [Compound 64], 0.1 to 10 nM; with `Cc1cccc(-c2nc(CNCCOc3ccccc3)[nH]c2-c2ccc3ncnn3c2)n1` [Compound 65], 0.1 to 10 nM.
Same read-out and setting: with `Cc1cccc(-c2nc(CNCCNc3ccccc3)[nH]c2-c2ccc3ncnn3c2)n1` [Compound 66] the figure was 0.1 to 10 nM; with `Cc1cccc(-c2nc(CNCCN(C)c3ccccc3)[nH]c2-c2ccc3ncnn3c2)n1` [Compound 67], 0.1 to 10 nM.
Same read-out and setting: with `Cc1cccc(-c2nc(CNCc3ccccc3-c3ccccc3)[nH]c2-c2ccc3ncccc3n2)n1` [Compound 68] the figure was 10 to 100 nM; with `Cc1cccc(-c2nc(CNCc3ccccc3-c3ccccc3)[nH]c2-c2ccnc3ccccc23)n1` [Compound 69], 100 to 1000 nM.
Regarding `Cc1cccc(-c2nc(CNCc3ccccc3-c3ccccc3)[nH]c2-c2ccc3c(c2)OCO3)n1` [Compound 71], the EC50 lay in the range of 100 to 1000 nM.
The same measure, in the same setting: in the case of `Cc1cccc(-c2nc(CNCc3ccccc3-c3ccccc3)[nH]c2-c2ccc3nccnc3c2)n1` [Compound 72] it was 10 to 100 nM.
For the compound `Cc1cccc(-c2nc(CNCc3ccccc3)[nH]c2-c2ccc3ncccc3n2)n1` [Compound 73], the EC50 was 100 to 1000 nM.
With `Cc1cccc(-c2nc(CNCc3ccccc3)[nH]c2-c2ccnc3ccccc23)n1` [Compound 74], the EC50 lay within 100 to 1000 nM.
On the same count and under the same terms, in the case of `Cc1cccc(-c2nc(CNCc3ccccc3)[nH]c2-c2ccccn2)n1` [Compound 75] it was 100 to 1000 nM; in that of `Cc1cccc(-c2nc(CNCc3ccccc3)[nH]c2-c2ccc3c(c2)OCO3)n1` [Compound 76], 10 to 100 nM.
Same read-out and setting: in the case of `Cc1cccc(-c2nc(CNCc3ccccc3)[nH]c2-c2ccc3nccnc3c2)n1` [Compound 77] it was 0.1 to 10 nM; in that of `Cc1cccc(-c2nc(CNCCc3c(F)cccc3F)[nH]c2-c2ccc3ncccc3n2)n1` [Compound 78], 0.1 to 10 nM; in that of `Cc1cccc(-c2nc(CNCCc3c(F)cccc3F)[nH]c2-c2ccnc3ccccc23)n1` [Compound 79], 100 to 1000 nM.
Still for that read-out and setting: in the case of `Cc1cccc(-c2nc(CNCCc3c(F)cccc3F)[nH]c2-c2ccncc2)n1` [Compound 80] it was 100 to 1000 nM; in that of `Cc1cccc(-c2nc(CNCCc3c(F)cccc3F)[nH]c2-c2ccc3c(c2)OCO3)n1` [Compound 81], 10 to 100 nM; in that of `Cc1cccc(-c2nc(CNCCc3c(F)cccc3F)[nH]c2-c2ccc3nccnc3c2)n1` [Compound 82], 0.1 to 10 nM.
Take `Cc1cccc(-c2nc(CNCc3ccccc3C)[nH]c2-c2ccc3ncccc3n2)n1` [Compound 83]: the EC50 was 0.1 to 10 nM.
Regarding `COc1ccccc1CCNCc1nc(-c2cccc(C)n2)c(-c2ccc3ncccc3n2)[nH]1` [Compound 84], the EC50 lay within 0.1 to 10 nM.
Still for that read-out and setting: with `Cc1cccc(-c2nc(CNCCN(C)c3ccccc3)[nH]c2-c2ccc3ncccc3n2)n1` [Compound 85] the figure was 0.1 to 10 nM; with `Cc1cccc(-c2nc(CNCc3ccccc3C)[nH]c2-c2ccc3nccnc3c2)n1` [Compound 86], 0.1 to 10 nM; with `COc1ccccc1CCNCc1nc(-c2cccc(C)n2)c(-c2ccc3nccnc3c2)[nH]1` [Compound 87], 0.1 to 10 nM.
The same measure, in the same setting: with `Cc1cccc(-c2nc(CNCCN(C)c3ccccc3)[nH]c2-c2ccc3nccnc3c2)n1` [Compound 88] the figure was 0.1 to 10 nM.
Same read-out and setting: in the case of `Cc1cccc(-c2nc(CNCc3ccccc3)[nH]c2-c2ccc3ncccc3c2)n1` [Compound 90] it was 0.1 to 10 nM; in that of `Cc1cccc(-c2nc(CNCc3ccccc3-c3ccccc3)[nH]c2-c2ccc3ncccc3c2)n1` [Compound 91], 10 to 100 nM.

The target of another test is T1, ALK5 (Homo sapiens, UniProt P36897).
T1 construct: purchased Reaction Biology Corp (Malvern, Pa.)
T1 sequence (P36897 34-503): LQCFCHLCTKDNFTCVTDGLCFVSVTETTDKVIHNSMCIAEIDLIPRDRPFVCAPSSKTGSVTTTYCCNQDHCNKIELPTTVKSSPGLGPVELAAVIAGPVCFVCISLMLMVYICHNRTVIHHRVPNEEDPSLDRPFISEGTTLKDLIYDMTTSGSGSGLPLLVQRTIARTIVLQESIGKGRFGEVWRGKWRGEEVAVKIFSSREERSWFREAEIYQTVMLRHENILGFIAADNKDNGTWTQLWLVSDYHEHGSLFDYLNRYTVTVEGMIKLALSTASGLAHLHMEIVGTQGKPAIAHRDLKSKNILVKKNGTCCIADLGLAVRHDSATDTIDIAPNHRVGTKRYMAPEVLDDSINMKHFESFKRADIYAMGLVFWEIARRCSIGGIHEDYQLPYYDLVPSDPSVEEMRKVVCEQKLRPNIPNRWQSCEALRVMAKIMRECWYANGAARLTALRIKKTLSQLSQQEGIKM
Description: ALK5 enzyme inhibition assay (Reaction Biology Corp, 33P-ATP filter-binding, casein substrate). As to conditions: 10 uM ATP, 2 hours at room temperature. It is filed as biochemical. The procedure: ALK5 enzyme inhibition assays were performed by Reaction Biology Corp (Malvern, Pa.). 1 mg/mL of peptide substrate (casein) and 10 uM ATP were prepared in a mixture of fresh reaction buffer. The kinase was delivered into the substrate solution which was gently mixed. Compounds in 100% DMSO were added to the kinase reaction mixture by Acoustic technology (Echo550; nanoliter range) and the mixture was incubated for 20 min at room temperature. ^33P-ATP (Specific activity 10 uCi/uL) was added into the reaction mixture to initiate the reaction and the reaction mixture was incubated for 2 hours at room temperature. Radioactivity was detected by filter-binding method and kinase activity data were expressed as the percent remaining kinase activity in test samples compared to vehicle (dimethyl sulfoxide) reactions. IC50 values and curve fits were obtained using Prism (GraphPad Software).
The term IC50 denotes the point on the concentration scale where inhibition reaches its midpoint. Read a low IC50 as inhibition by little substance. `Cc1cccc(-c2nc(CN[C@@H](C)c3ccccc3)[nH]c2-c2ccc3ncnn3c2)n1` [Compound 12] had an IC50 of 1000 to 10000 nM.
The same measure, in the same setting: in the case of `COC(=O)[C@@H](NCc1nc(-c2cccc(C)n2)c(-c2ccc3ncnn3c2)[nH]1)c1ccccc1` [Compound 16] it was 0.1 to 50 nM.

The values above are taken from patent US20210139477A1, “ALK5 INHIBITORS, CONJUGATES, AND USES THEREOF” (Silverback Therapeutics, Inc., priority 2019, published 2021).
